Test results from patent US5744452A, “γ-L-glutamyl containing immunomodulator compounds and methods therewith” (Wei; Edward T., priority 1995, dated 1998).

Tests used:
murine bone marrow cells = experiment: .THETA.-antigen expression on murine bone marrow cells (T-lymphocyte precursor differentiation); assay type: cell-based, CBA strain mice; parameters: .THETA.-antigen expression on murine bone marrow cells: unit not given here; conditions: for .THETA.-antigen expression on murine bone marrow cells: Table 1; for Percent of murine bone marrow cells expressing .THETA.-antigen: Table 5
Description: Differentiation of murine T-lymphocyte precursors was studied by the enumeration of cells expressing early surface differentiation marker .THETA.-antigen. Bone marrow cells were obtained from CBA strain mice killed by cervical dislocation. Cells were washed from femur bones with Hank's balanced salt solution and washed 3 times with RPM 1-1640 medium by centrifugation at 400 xg. Peptides at desired concentrations were incubated with 1×10^6 /ml of obtained cells for 1 hour at 37° C. Theta-antigen (".THETA.-antigen") expression has been determined with antibrain antibodies in a cytotoxicity assay using complement-dependent cell lysis (Terasaki et al., "Microdroplet Lymphocyte Cytotoxicity Test. Manual of Tissue Typing Techniques," National Institutes of Health, Bethesda, Md., pp 50-55, 1972). Dead cells were counted microscopically after eosin staining. […] Its activity was much stronger than that of the reference thymogen peptide.
Differentiation of murine T-lymphocyte precursors was studied by the enumeration of cells expressing early surface differentiation marker--.THETA.-antigen which is an analog of the Thy-1 lymphocyte differentiation antigen. Bone marrow cells were obtained from CBA strain mice killed by cervical dislocation. Cells were washed from femur bones with Hank's balanced salt solution and washed 3 times with RPMI-1640 medium by centrifugation at 400 xg. Peptides at desired concentrations were incubated with 1×10^6 /ml of obtained cells for 1 hour at 37° C. .THETA.-antigen expression were determined with antibrain antibodies in a cytotoxicity assay using complement-dependent cell lysis (Terasaki et al., 1972). Dead cells were counted microscopically after eosin staining untreated bone marrow cells served as a negative control, and murine thymocytes as a positive control.

murine thymocytes = experiment: Murine thymocyte differentiation after intraperitoneal injection; assay type: in vivo, CBA mice; conditions: for Percent of thymocytes expressing L3T4 / Percent of thymocytes expressing Lyt2 / Percent of thymocytes expressing Thy-1: 24 hours
Description: Bestim was injected into 3-month old CBA mice at doses ranging from 10 ng/kg to 100 μg/kg intraperitoneally. Mice were killed by cervical dislocation 24 hours after injection, the thymus gland removed, and the cells isolated by centrifugation and washed in RPMI-1640 medium. Expression of surface differentiation antigens were measured using monoclonal antibodies to L3T4 (T-helper marker), Lyt 2 (T-cytotoxic marker) and Thy-1 (common T-lymphocyte marker) molecules in a cytotoxicity assay using complement-dependent cell lysis (Terasaki et al., 1972). Dead cells were counted microscopically after eosin staining.

mice = experiment: Acute toxicity, single intramuscular dose, mice; assay type: in vivo
Description: (§1) To illustrate this point and in preparation for clinical studies, acute and sub-acute toxicity studies were conducted in animals with Bestim according to conditions of good-laboratory practices. Bestim, prepared as a sterile lyophitized powder in ampoules, was dissolved in sterile 0.9% NaCl solution and injected intramuscularly in all experiments.
(§2) Acute toxicity: Rodents (mice and rats) and dogs were randomized into groups of equal numbers of males and females. Animals were inspected daily for 14 days after a single dose of Bestim (intramuscular):
(§3) Body weight, overall appearance and behavior were evaluated each day and, at the end of two weeks, macroscopic and histopathological examinations of the internal organs (heart, lungs, pleural and peritoneal cavities, muscles, stomach, small and large intestine, liver, spleen, pancreas, kidneys, bladder, thyroid, brain, skin and testes/ovaries) of all animals were conducted.

rats = experiment: Acute toxicity, single intramuscular dose, rats; assay type: in vivo; conditions: single 500.0 mg/kg intramuscular, 14 days
Description: as §1, §2, §3

dogs [1] = experiment: Acute toxicity, single intramuscular dose, dogs; assay type: in vivo; conditions: single 500.0 mg/kg intramuscular, 14 days
Description: as §1, §2, §3

dogs [2] = experiment: Subacute toxicity, repeated intramuscular injection, dogs; assay type: in vivo
Description: as §1
Subacute Toxicity Studies: In a second set of experiments, Bestim was administered for longer durations, accordingly:
dogs: 1 mg/kg, 10 mg/kg and 100 mg/kg, administered intramuscularly daily for 1 month and for 3 months.

[3] = system: patient after surgical removal of thymus gland; experiment: Case History 3: immunodeficiency caused by surgical removal of the thymus (Patient C); assay type: in vivo, human
Description: Patient C was in the clinic for immunodeficiency caused by surgical removal of the thymus gland. Bestim was administered in the standard 5 daily intramuscular dose of 0.1 mg.

[4] = system: patients with prostatitis caused by Chlamydian infection; experiment: Trial in prostatitis caused by Chlamydian infection; assay type: in vivo, human; conditions: fourteen treated, 30 control patients
Description: In addition to these studies, a trial was conducted using Bestim for the treatment of prostatitis caused by Chlamydian infection. Fourteen patients were treated with Bestim with 30 control patients.

viral hepatitis = experiment: Clinical trials in viral hepatitis; assay type: in vivo, human; conditions: trials in progress
aminopeptidases = experiment: Degradation by aminopeptidases; assay type: in vitro ADME
[5] = mice, single 5000.0 mg/kg intramuscular, 14 days

`N[C@@H](CCC(=O)N[C@@H](Cc1c[nH]c2ccccc12)C(=O)O)C(=O)O` [Bestim, γ-L-glutamyl-L-tryptophan] was tested, and the “.THETA.-antigen expression on murine bone marrow cells” value (shortened to “.THETA.-antigen expression”) (murine bone marrow cells; peptide 0.0001 μg/ml, 1 hour 37° C.) was 14 ± 1.5, the “.THETA.-antigen expression” value (murine bone marrow cells; peptide 0.001 μg/ml) was 29 ± 2.4 and the “.THETA.-antigen expression” value (murine bone marrow cells; peptide 0.01 μg/ml) was 30 ± 2.8. The “.THETA.-antigen expression” value (murine bone marrow cells; peptide 0.1 μg/ml) was 34 ± 1.9, the “.THETA.-antigen expression” value (murine bone marrow cells; peptide 1.0 μg/ml) was 49 ± 1.2 and the “.THETA.-antigen expression” value (murine bone marrow cells; peptide 10 μg/ml) was 48 ± 0.8. The “.THETA.-antigen expression” value (murine bone marrow cells; peptide 100 μg/ml) was 47 ± 1.0, the “Percent of murine bone marrow cells expressing .THETA.-antigen” value (murine bone marrow cells; peptide 0.0001 μg/ml) was 25% and the “Percent of murine bone marrow cells expressing .THETA.-antigen” value (murine bone marrow cells; peptide 0.001 μg/ml) was 31%. The “Percent of murine bone marrow cells expressing .THETA.-antigen” value (murine bone marrow cells; peptide 0.01 μg/ml) was 35%, the “Percent of murine bone marrow cells expressing .THETA.-antigen” value (murine bone marrow cells; peptide 0.1 μg/ml) was 37% and the “Percent of murine bone marrow cells expressing .THETA.-antigen” value (murine bone marrow cells; peptide 1.0 μg/ml) was 49%. For the same compound, the “Percent of murine bone marrow cells expressing .THETA.-antigen” value (murine bone marrow cells; peptide 10 μg/ml) was 52%, the “Percent of murine bone marrow cells expressing .THETA.-antigen” value (murine bone marrow cells; peptide 100 μg/ml) was 60% and the “potency relative to thymogen” value (murine bone marrow cells; dose-response analysis of Table 1 data) was “at least 500 fold”. The “concentrations with immunostimulatory activity” value (murine bone marrow cells; preclinical studies, summary) was “sub-nanomolar concentrations”, the “Percent of thymocytes expressing L3T4” value (murine thymocytes; 0.01 μg/kg i.p.) was 40 ± 8% and the “Percent of thymocytes expressing Lyt2” value (murine thymocytes; 0.01 μg/kg i.p.) was 45 ± 5%. The “Percent of thymocytes expressing Thy-1” value (murine thymocytes; 0.01 μg/kg i.p.) was 95 ± 3%, the “Percent of thymocytes expressing L3T4” value (murine thymocytes; 0.1 μg/kg i.p.) was 55 ± 1% and the “Percent of thymocytes expressing Lyt2” value (murine thymocytes; 0.1 μg/kg i.p.) was 44 ± 2%. The “Percent of thymocytes expressing Thy-1” value (murine thymocytes; 0.1 μg/kg i.p.) was 89 ± 2%, the “Percent of thymocytes expressing L3T4” value (murine thymocytes; 1 μg/kg i.p.) was 54 ± 1% and the “Percent of thymocytes expressing Lyt2” value (murine thymocytes; 1 μg/kg i.p.) was 46 ± 1%. The “Percent of thymocytes expressing Thy-1” value (murine thymocytes; 1 μg/kg i.p.) was 91 ± 1%, the “Percent of thymocytes expressing L3T4” value (murine thymocytes; 10 μg/kg i.p.) was 64 ± 1% and the “Percent of thymocytes expressing Lyt2” value (murine thymocytes; 10 μg/kg i.p.) was 47 ± 2%. The “Percent of thymocytes expressing Thy-1” value (murine thymocytes; 10 μg/kg i.p.) was 90 ± 1%, the “Percent of thymocytes expressing L3T4” value (murine thymocytes; 100 μg/kg i.p.) was 70 ± 1% and the “Percent of thymocytes expressing Lyt2” value (murine thymocytes; 100 μg/kg i.p.) was 48 ± 1%. For the same compound, the “Percent of thymocytes expressing Thy-1” value (murine thymocytes; 100 μg/kg i.p.) was 91 ± 0%, the “T-lymphocyte subset induced to differentiate in murine thymus” value (murine thymocytes; conclusion from Table 3) was “preferentially induces differentiation of a subset of T-helper lymphocytes” and the deaths (mice; [5]) was “No deaths were observed”. For the same compound, the “general appearance, behavior, body weight, hematological, biochemical and physiological indices, macroscopic and histopathological examination of internal organs” value (mice; [5]) was “all within normal limits”, the “tested dose relative to expected doses for therapeutic trials” value (mice; single administration) was ~5,000,000 fold and the deaths (rats) was “No deaths were observed”. For the same compound, the “general appearance, behavior, body weight, hematological, biochemical and physiological indices, macroscopic and histopathological examination of internal organs” value (rats) was “all within normal limits”, the deaths (dogs [1]) was “No deaths were observed” and the “general appearance, behavior, body weight, hematological, biochemical and physiological indices, macroscopic and histopathological examination of internal organs” value (dogs [1]) was “all within normal limits”. The “macroscopic and histological examination of organs” value (dogs [2]; dogs, 1, 10 and 100 mg/kg i.m. daily for 1 and 3 months) was “no significant changes”, the “local inflammatory reactions at the site of injection” value (dogs [2]; dogs, repeated i.m. injection) was “no local inflammatory reactions at the site of injection” and the “T-Lymphocytes (CD3)” value ([3]; After Bestim Therapy) was 49%. For the same compound, the Lymphocytes ([3]; After Bestim Therapy (5 daily i.m. 0.1 mg)) was 1980 per mm^3, the Lymphocytes ([3]; Before Therapy) was 1100 per mm^3 and the “T-Lymphocytes (CD3)” value ([3]; Before Therapy) was 10%. For the same compound, the “inflammation in the prostate” value [4] was “inflammation in the prostate was ameliorated”, the “signs and symptoms of viral hepatitis” value (viral hepatitis) was “ameliorates the signs and symptoms of viral hepatitis” and the “activity of aminopeptidases against the compound” value (aminopeptidases) was “not active”.
